Read-outs that look alike come from different tables or passages of the source.
Key:
L929 cells = assay: TNF-induced programmed necrosis of L929 cells (Cell Titer-Glo viability); type: cell-based, mouse; conditions: Mus musculus
Procedure: (§1) The biological test protocol is adopted to test effects of the compound on TNF-induced programmed necrosis of FADD (Fas-associated death domain)-deficient Jurkat cells and L929 cells.
(§2) Two different stimulation methods were used: treating with tumor necrosis factor (TNFα) alone, or treating with TNFα in combination of mitochondrial-derived cysteine-aspartate activator (SMAC) SM164. Cell viability was determined by measuring chemiluminescence values, thereby assessing the bioactivity of the compounds in inhibiting programmed cell necrosis.
(§3) Method: FADD-deficient Jurkat cells: FADD-deficient Jurkat cells (human peripheral blood leukemia T cell line) were cultured in vitro. After reaching logarithmic growth phase, cells were collected and centrifuged at 1000 rpm for 5 minutes. A supernatant was discarded. A cell concentration was adjusted to 2.5×10^5/mL, and cells were seeded into a 384-well plate at 40 µL per well. In the corresponding wells, 5 µL of SM164 (50 nM) and compounds diluted with cell culture medium were added. After pre-treatment at 37°C for 1 hour, 5 µL of TNFα (50 ng/mL) diluted with cell culture medium was added to each well as a stimulation group, while 5 µL of culture medium was added as a control group. After the plate was incubated in a cell culture incubator (37°C, 5% CO2) for 14 hours, 15 µL of Cell Titer-Glo solution was added to each well. Then, the plate was incubated at room temperature for 30 minutes. Luminescence was measured to assess intracellular ATP levels. Cell viability was set at 100% for unstimulated DMSO control wells. […] The plate was placed in a cell culture incubator (37°C, 5% CO2) and cultured for 12 hours. In the corresponding wells, 5 µL of SM164 (500 nM) and compounds diluted with cell culture medium were added. After pre-treatment at 37°C for 1 hour, 5 µL of TNFα (500 ng/mL) diluted with cell culture medium was added to the wells as a stimulation group, while 5 µL of culture medium was added as a control group. After the plate was incubated in the cell incubator (37°C, 5% CO2) for 14 hours, 15 µL of Cell Titer-Glo solution was added to each well. Then, the plate was incubated at room temperature for 30 minutes, and luminescence was measured to assess intracellular ATP levels. Cell viability was set at 100% for unstimulated DMSO control wells. EC50 values of the compounds were calculated using Prism GraphPad statistical software.

[1] = test system: FADD-deficient Jurkat cells; assay: TNF-induced programmed necrosis of FADD-deficient Jurkat cells (Cell Titer-Glo viability); type: cell-based, human; conditions: Homo sapiens, Jurkat
Procedure: as §1, §2, §3

[2] = L929, stimulation with TNFα + SM164, read-out: EC50 (nM) L929 cells (mouse-derived) TNFα+ SM164
[3] = L929, stimulation with TNFα alone, read-out: EC50 (nM) L929 cells (mouse-derived) TNFα
[4] = stimulation with TNFα + SM164, read-out: EC50 (nM) FADD^-/- Jurkat cells (human-derived) TNFα+ SM164
[5] = stimulation with TNFα alone, read-out: EC50 (nM) FADD^-/- Jurkat cells (human-derived) TNFα

| Structure (SMILES) | EC50 (L929 cells; [2]) [nM] | EC50 (L929 cells; [3]) [nM] | EC50 [1, 4] [nM] | EC50 [1, 5] [nM] | also measured |
| --- | --- | --- | --- | --- | --- |
| Cn1nnc(C(=O)NCc2ccc(C#Cc3ccccn3)c(F)c2)c1Cc1ccccc1 [IRCBC-058] | 35.2 | 1.5 | 1.25 | 0.018 |  |
| Cn1nnc(C(=O)NCc2ccc(C#Cc3ccccn3)cc2F)c1Cc1ccccc1 [IRCBC-059] | 14.8 | 3.07 | 2.26 | 0.025 |  |
| C[C@H](NC(=O)c1nnn(C)c1Cc1ccccc1F)c1ccc(C#Cc2ccccn2)cc1 [IRCBC-067] | 0.887 | 0.264 | 0.261 | 0.004 |  |
| C[C@H](NC(=O)c1nnn(C)c1Cc1ccc(C#N)cc1)c1ccc(C#Cc2ccccn2)cc1 [IRCBC-071] | 2.99 | 0.914 | 0.641 | 0.006 |  |
| C[C@H](NC(=O)c1nnn(C)c1Cc1cccc(C#N)c1)c1ccc(C#Cc2ccccn2)cc1 [IRCBC-072] | 17.3 | 1.79 | 2.73 | 0.049 |  |
| C[C@H](NC(=O)c1nnn(C)c1Cc1ccccc1)c1ccc(C#Cc2c(F)cncc2F)cc1 [IRCBC-091] | 1.29 | 0.455 | 0.145 | 0.004 |  |
| C[C@H](NC(=O)c1nnn(C)c1Cc1ccccc1)c1ccc(C#Cc2ccncc2Cl)cc1 [IRCBC-093] |  |  |  |  | EC50 (L929 cells; L929, read-out: EC50 (nM) L929 cells (mouse-derived) TNFα): 0.374 nM; EC50 ([1]; read-out: EC50 (nM) FADD^-/- Jurkat cells (human-derived) TNFα): 0.001 nM |
| C[C@H](NC(=O)c1nnn(C)c1Cc1ccccc1)c1ccc(C#Cc2ccncc2C#N)cc1 [IRCBC-094] | 2.16 | 0.403 | 0.304 | 0.001 |  |
| COc1cnc(C#Cc2ccc([C@H](C)NC(=O)c3nnn(C)c3Cc3ccccc3)cc2)nc1 [IRCBC-095] | 0.052 | 0.01 | 0.002 |  |  |
| C[C@H](NC(=O)c1nnn(C)c1Cc1ccccc1)c1ccc(C#Cc2ccc(C(F)(F)F)cn2)cc1 [IRCBC-096] |  |  | 0.406 | 0.006 | EC50 (L929 cells; L929, stimulation with TNFα + SM164, µM, read-out: EC50 L929 cells (mouse-derived) TNFα+ SM164): > 1000 nM; EC50 (L929 cells; L929, stimulation with TNFα alone, µM, read-out: EC50 L929 cells (mouse-derived) TNFα): > 1000 nM |
| C[C@H](NC(=O)c1nnn(C)c1Cc1ccccc1)c1ccc(C#Cc2ncc(N(C)C)cn2)cc1 [IRCBC-097] | 0.003 | 0.001 |  |  |  |
| CNc1ccc(C#Cc2ccc([C@H](C)NC(=O)c3nnn(C)c3Cc3ccccc3)cc2)nc1 [IRCBC-102] | 0.018 | 0.01 |  |  |  |
| C[C@H](NC(=O)c1nnn(C)c1Cc1ccccc1)c1ccc(C#Cc2ccc(N3CCOCC3)cn2)cc1 [IRCBC-105] | 0.004 | 0.008 |  |  |  |
| C[C@H](NC(=O)c1nnn(C)c1Cc1ccccc1)c1ccc(C#Cc2ncc3nc[nH]c3n2)cc1 [IRCBC-129] | 0.196 | 0.06 |  |  |  |
| CC(C)Nc1ccc(C#Cc2ccc([C@H](C)NC(=O)c3nnn(C)c3Cc3ccccc3)cc2)nc1 [IRCBC-146] | 0.0014 |  |  |  |  |
| [2H]C([2H])([2H])Nc1ccc(C#Cc2ccc([C@H](C)NC(=O)c3nnn(C)c3Cc3ccccc3)cc2)nc1 [IRCBC-150] | 0.001 | 0.001 |  |  |  |
| C[C@H](NC(=O)c1nnn(C)c1Cc1ccccc1)c1ccc(C#Cc2ncc(N3CCOCC3)cc2C#N)cc1 [IRCBC-154] | 0.002 |  |  |  |  |
| CNc1cnc(C#Cc2ccc([C@H](C)NC(=O)c3nnn(C)c3Cc3ccccc3)cc2)nc1 [IRCBC-160] | 0.00234 |  |  |  |  |
| C[C@H](NC(=O)c1nnn(C)c1Cc1ccccc1)c1ccc(C#Cc2ncc(N)cn2)cc1 [IRCBC-161] | 0.002 | 0.002 |  |  |  |
| [2H]C([2H])([2H])Nc1cnc(C#Cc2ccc([C@H](C)NC(=O)c3nnn(C)c3Cc3ccccc3)cc2)nc1 [IRCBC-256] | 0.00121 |  |  |  |  |
| [2H]C([2H])([2H])Nc1cnc(C#Cc2ccc([C@H](C)NC(=O)c3nnn(C)c3Cc3ccccc3)cc2)c(C#N)c1 [IRCBC-257] | 0.00117 |  |  |  |  |
| C[C@H](NC(=O)c1nnn(C)c1Cc1ccccc1)c1ccc(C#Cc2ncc(N3CC(N(C)C)C3)cn2)cc1 [IRCBC-259] | 0.001 |  |  |  |  |
| CC(C)Nc1cnc(C#Cc2ccc([C@H](C)NC(=O)c3nnn(C)c3Cc3ccccc3)cc2)nc1 [IRCBC-269] |  |  | 0.00168 |  |  |
